{"source": "patent EP2954896A1", "about": "“Small molecule inhibitors of the E3 Ligase Skp2 in depression and other diseases” (Max-Planck-Gesellschaft zur Förderung der Wissenschaften …, priority 2014, dated 2015)", "key": {"[1]": {"assay": "Chronic PAR treatment after chronic social defeat stress: behavioral tests (open field, social avoidance, forced swim)", "format": "in vivo", "settings": "FKBP51-deleted versus wild type mice", "description": "After cessation of the stressor, groups were subdivided into vehicle-treated and paroxetine-treated animals, resulting in 8 groups (n = 7-13 per group). The treatment phase lasted for three weeks. The behavioral tests took place during the last week of the paroxetine treatment. The CSDS paradigm lasted for 21 days. Briefly, the experimental mice were introduced into the home cage (45 cm x 25 cm) of a dominant resident mouse and defeated shortly after. When the defeat was achieved, the animals were separated by a wire mesh, preventing physical but allowing sensory contact for 24 h. Each day, stressed animals were defeated by another unfamiliar, dominant resident mouse in order to exclude a repeated encounter throughout the experiment. The daily defeat was performed between 11:00 and 16:00 h; varying starting times reduced the predictability of the stressor and therefore minimized a potential habituation effect. […] Both stress and control animals were handled daily during the stress procedure; body weight for all mice was assessed at the beginning of the experiment, after the cessation of the stress period, and on the day of killing. […] All tests were analyzed using an automated videotracking system (Anymaze 4.20, Stoelting, Wood Dale, IL). […] Time spent immobile (floating) and time spent struggling was scored by an experienced observer, blind to treatment or condition of the animals."}, "Beclin1 mRNA": {"system": "Beclin1 mRNA", "assay": "Beclin1 mRNA expression by qPCR in rat cortical astrocytes", "format": "cell-based", "settings": "10µM for 72h; vehicle set to 1", "method": "Enriched astroglial cultures were prepared from postnatal day 1 rat pups (Sprague-Dawley, Charles River, Sulzfeld, Germany) and handled as described by Attwood BK et al. (2011) Nature 473: 372-375 and Hartmann J et al. (2012) Neuropharmacology 62: 332-339.\nTotal RNA was isolated from astroglial cells according to the manufacturer's protocol of NucleoSpin RNA II (Macherey-Nagel, Germany). In total, 300 ng of purified RNA was reverse transcribed using random primers (Promega) and Omniscript® Reverse Transcriptase (Qiagen). Based on the LightCycler® System (Roche Applied Science, Germany) and SYBR green detection (QuantiFast® SYBR Green; Qiagen), quantitative assessment of Beclin1 cDNA levels were performed. b-Actin PCR was performed serving as endogenous control for normalization. The primers used were: for Beclin1: antisense - 5'-[…]-3' sense - 5'-[…]-3'; and for β-Actin: antisense - 5'-[…]-3', sense-5'-[…]-3'. Relative changes of gene expression were calculated using the comparative ΔΔCT method (Livak and Schmittgen, METHODS 25, 402-408, 2001). Detection of viral RNA by real-time PCR was as recently described (Corman et al. (2014) Journal of Clinical Virology 60: 168-171).\nBeclin1 mRNA expression levels were determined by qPCR. HEK cells were treated either with proteasome inhibitor MG132 or with vehicle for 5h and Beclin1 protein levels were determined by Western analysis. Furthermore Co-immunoprecipitations were performed with Beclin1 antibody in HEK cell lysates with ectopic Ub-GFP."}, "[2]": {"assay": "Chronic PAR treatment after chronic social defeat stress: physiological and neuroendocrine parameters", "format": "in vivo, mice", "description": "Initially, wild-type and 51 KOmice were split into 2 x 2 groups (control WT, control FKBP51^-/-, defeat WT, defeat FKBP51^-/-) and subjected to the chronic stress procedure described below. After cessation of the stressor, groups were subdivided into vehicle-treated and paroxetine-treated animals, resulting in 8 groups (n = 7-13 per group). The treatment phase lasted for three weeks. The behavioral tests took place during the last week of the paroxetine treatment.\nThe CSDS paradigm lasted for 21 days. Briefly, the experimental mice were introduced into the home cage (45 cm x 25 cm) of a dominant resident mouse and defeated shortly after. When the defeat was achieved, the animals were separated by a wire mesh, preventing physical but allowing sensory contact for 24 h. Each day, stressed animals were defeated by another unfamiliar, dominant resident mouse in order to exclude a repeated encounter throughout the experiment. The daily defeat was performed between 11:00 and 16:00 h; varying starting times reduced the predictability of the stressor and therefore minimized a potential habituation effect. […] Both stress and control animals were handled daily during the stress procedure; body weight for all mice was assessed at the beginning of the experiment, after the cessation of the stress period, and on the day of killing. […]"}}}
{"molecule": "Fc1ccc([C@@H]2CCNC[C@H]2COc2ccc3c(c2)OCO3)cc1", "note": "[PAR, paroxetine]", "values": [{"measurement": "enhancing struggling and reducing floating, forced swim test", "setting": "[1]", "result": "significantly less effective"}, {"measurement": "Beclin1 mRNA expression level", "setting": "Beclin1 mRNA", "result": "do not change Beclin1-mRNA"}, {"measurement": "paroxetine-induced body weight increase", "setting": "[2]; 51 KO versus wild-type mice", "result": "significantly less affected"}, {"measurement": "paroxetine-induced body weight increase", "setting": "[2]; basal conditions versus stressed animals", "result": "significantly enhanced in mice under basal conditions compared to stressed animals"}]}
